Laboratory results taken from patent US20150329558A1, “FUSED HETEROCYCLIC COMPOUNDS AS ION CHANNEL MODULATORS” (Gilead Sciences, Inc., priority 2011, published 2015).
Where two headings read alike, the source gives them in different places.

Columns and labels:
[1] = target: wild-type human cardiac sodium channel, hNav1.5 (late INa) (Homo sapiens, UniProt Q14524); assay: Late INa screening assay (QPatch whole cell patch clamp); assay type: cell-based
Outline: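 Compounds tested at 1 μM final in extracellular solution against tefluthrin (10 μM)-enhanced late current. Automated patch clamp (23-25° C) on HEK293 expressing alpha subunit alone: −120 mV holding, 250 ms depolarization to −20 mV every 10 s. Read-out is percent inhibition of mean current over 225–250 ms.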

hERG potassium channel = hERG potassium channel (Homo sapiens, UniProt Q12809); assay: hERG screening assay (PatchXpress, CHO cells); assay type: cell-based; settings: % inhibition at 1 μM
hERG potassium channel, sequence (Q12809 whole entry): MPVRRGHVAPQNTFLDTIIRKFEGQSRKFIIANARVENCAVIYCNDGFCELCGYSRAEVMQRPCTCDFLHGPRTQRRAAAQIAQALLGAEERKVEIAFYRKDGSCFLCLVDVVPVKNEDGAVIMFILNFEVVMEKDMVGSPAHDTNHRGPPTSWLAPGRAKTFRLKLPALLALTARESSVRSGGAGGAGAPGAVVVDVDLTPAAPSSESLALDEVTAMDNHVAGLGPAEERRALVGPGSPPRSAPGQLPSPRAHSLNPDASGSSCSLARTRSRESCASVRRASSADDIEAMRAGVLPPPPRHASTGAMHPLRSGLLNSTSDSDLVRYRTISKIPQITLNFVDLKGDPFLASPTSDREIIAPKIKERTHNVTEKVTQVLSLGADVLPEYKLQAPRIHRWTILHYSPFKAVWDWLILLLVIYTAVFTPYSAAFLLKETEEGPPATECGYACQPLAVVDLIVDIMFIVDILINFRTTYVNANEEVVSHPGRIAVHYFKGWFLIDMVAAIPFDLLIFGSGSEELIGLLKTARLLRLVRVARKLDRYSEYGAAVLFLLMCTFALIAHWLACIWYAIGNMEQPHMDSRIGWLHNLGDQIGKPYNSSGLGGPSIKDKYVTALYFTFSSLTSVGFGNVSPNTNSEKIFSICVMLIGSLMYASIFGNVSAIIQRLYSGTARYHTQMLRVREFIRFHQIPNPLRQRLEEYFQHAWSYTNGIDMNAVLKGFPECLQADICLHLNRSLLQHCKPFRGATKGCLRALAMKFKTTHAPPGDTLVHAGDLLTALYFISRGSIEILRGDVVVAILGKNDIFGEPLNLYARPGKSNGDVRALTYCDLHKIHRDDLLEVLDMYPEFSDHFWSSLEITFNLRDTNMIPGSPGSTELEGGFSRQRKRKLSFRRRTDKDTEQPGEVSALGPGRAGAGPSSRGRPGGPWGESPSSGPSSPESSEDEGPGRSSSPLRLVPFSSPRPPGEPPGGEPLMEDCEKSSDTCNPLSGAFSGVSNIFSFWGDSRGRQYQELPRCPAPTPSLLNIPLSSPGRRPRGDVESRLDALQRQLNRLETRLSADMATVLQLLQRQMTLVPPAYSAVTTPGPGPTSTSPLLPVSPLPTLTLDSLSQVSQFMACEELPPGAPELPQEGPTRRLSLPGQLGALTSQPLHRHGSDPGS
Procedure: Compounds were also tested for their effect to block the hERG K^+ channel.
Compounds were screened to test their activity in blocking the hERG potassium channel at AVIVA Biosciences (San Deigo, Calif., USA). The hERG channel is heterologously expressed in a CHO (Chinese Hamster Ovary) cell line. Cells were maintained with standard tissue culture procedures and stable channel expression was maintained with 500 μg/mL G418 in the culture medium. Cells were harvested for testing on the PatchXpress 7000A automated patch clamp with Accumax (Innovative Cell Technologies, San Diego, Calif.) to isolate single cells.
The following solutions were used for electrophysiological recordings. The external solution contained: 2 mM CaCl2; 2 mM MgCl2; 4 mM KCl; 150 mM NaCl; 10 mM Glucose; 10 mM HEPES (pH 7.4 with 1M NaOH; osmolarity, ˜310 mOsm). The internal solution contained: 140 mM KCl, 10 mM MgCl2, 6 mM EGTA, 5 mM HEPES, 5 mM ATP (pH adjusted to 7.25 with KOH; osmolarity, ˜295 mOsm).
hERG channels were activated when the voltage was first stepped to −50 mV for 300 ms from the −80 mV holding potential and then stepped to +20 mV for 5 seconds. At +20 mV the channels open and then largely inactivate, so the currents are relatively small. Upon returning to −50 mV from +20 mV, hERG currents transiently become much larger as inactivation is rapidly removed and then the channel closes. The first step to −50 mV for 300 ms was used as a baseline for measuring the peak amplitude during the step to −50 mV after channel activation. The peak tail current at −50 mV was measured both under control conditions and after addition of compound, each cell serving as its own control.
All compounds were prepared as 10 mM DMSO stocks in glass vials. Stock solutions were mixed by vigorous vortexing and sonication for about 2 minutes at room temperature. For testing, compounds were diluted in glass vials using an intermediate dilution step in pure DMSO and then further diluted to working concentrations in external solution. Dilutions were prepared no longer than 20 minutes before use.
For the electrophysiological recordings, after achieving the whole-cell configuration, cells were monitored for 90 seconds to assess stability and washed with external solution for 66 seconds. The voltage protocol described above was then applied to the cells every 12 seconds and throughout the whole procedure. Only cells with stable recording parameters and meeting specified health criteria were allowed to enter the compound addition procedure.
External solution containing 0.1% DMSO (vehicle) was applied to the cells first to establish the control peak current amplitude. After allowing the current to stabilize for 3 to 5 minutes, 1 μM and then 10 μM test compounds were applied. Each compound concentration was added 4 times and cells were kept in test solution until the effect of the compound reached steady state or for a maximum of 12 minutes. After addition of test compound, a positive control (1 μM Cisapride) was added and must block >95% of the current for the experiment to be considered valid. Washout in the external solution compartment was performed until the recovery of the current reached steady state.

[2] = Microsomal stability assay, rat; assay type: in vitro ADME; settings: metabolic stability, rat liver microsomes 0.5 mg/mL, substrate 3 uM
Outline: (§1)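 Liver microsomes at 0.5 mg/mL protein in 100 mM KPO4 buffer, incubated with 3 uM compound and NADPH-regenerating system, run in duplicate. Samples taken at 2, 12, 25, 45 and 65 min and quenched in MeOH/ACN/water before analysis.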

[3] = Microsomal stability assay, dog; assay type: in vitro ADME; settings: metabolic stability, dog liver microsomes 0.5 mg/mL, substrate 3 uM
Outline: as §1

[4] = Microsomal stability assay, human; assay type: in vitro ADME; settings: metabolic stability, human liver microsomes 0.5 mg/mL, substrate 3 uM
Outline: as §1

hNav1.1 = target: T1, hNav1.1 (Homo sapiens, UniProt P35498); assay: Nav1.1 use-dependent block, whole-cell voltage clamp; assay type: cell-based; settings: use-dependent block 10 Hz, read-out: NAv1.1*-CHAN TEST-UDB-10 HZ-
T1 construct: expressed in transfected cells; host or cells: HEK293, transient transfection (α1:β1:β2 = 10:1:1)

Human Nav1.2 = target: T2, Human Nav1.2 (Homo sapiens, UniProt Q99250); assay: Nav1.2 use-dependent block, whole-cell voltage clamp; assay type: cell-based; settings: use-dependent block 10 Hz, read-out: NAv1.2*-CHAN TEST-UDB-10 HZ-
T2 construct: expressed in transfected cells
T2 sequence (Q99250 whole entry): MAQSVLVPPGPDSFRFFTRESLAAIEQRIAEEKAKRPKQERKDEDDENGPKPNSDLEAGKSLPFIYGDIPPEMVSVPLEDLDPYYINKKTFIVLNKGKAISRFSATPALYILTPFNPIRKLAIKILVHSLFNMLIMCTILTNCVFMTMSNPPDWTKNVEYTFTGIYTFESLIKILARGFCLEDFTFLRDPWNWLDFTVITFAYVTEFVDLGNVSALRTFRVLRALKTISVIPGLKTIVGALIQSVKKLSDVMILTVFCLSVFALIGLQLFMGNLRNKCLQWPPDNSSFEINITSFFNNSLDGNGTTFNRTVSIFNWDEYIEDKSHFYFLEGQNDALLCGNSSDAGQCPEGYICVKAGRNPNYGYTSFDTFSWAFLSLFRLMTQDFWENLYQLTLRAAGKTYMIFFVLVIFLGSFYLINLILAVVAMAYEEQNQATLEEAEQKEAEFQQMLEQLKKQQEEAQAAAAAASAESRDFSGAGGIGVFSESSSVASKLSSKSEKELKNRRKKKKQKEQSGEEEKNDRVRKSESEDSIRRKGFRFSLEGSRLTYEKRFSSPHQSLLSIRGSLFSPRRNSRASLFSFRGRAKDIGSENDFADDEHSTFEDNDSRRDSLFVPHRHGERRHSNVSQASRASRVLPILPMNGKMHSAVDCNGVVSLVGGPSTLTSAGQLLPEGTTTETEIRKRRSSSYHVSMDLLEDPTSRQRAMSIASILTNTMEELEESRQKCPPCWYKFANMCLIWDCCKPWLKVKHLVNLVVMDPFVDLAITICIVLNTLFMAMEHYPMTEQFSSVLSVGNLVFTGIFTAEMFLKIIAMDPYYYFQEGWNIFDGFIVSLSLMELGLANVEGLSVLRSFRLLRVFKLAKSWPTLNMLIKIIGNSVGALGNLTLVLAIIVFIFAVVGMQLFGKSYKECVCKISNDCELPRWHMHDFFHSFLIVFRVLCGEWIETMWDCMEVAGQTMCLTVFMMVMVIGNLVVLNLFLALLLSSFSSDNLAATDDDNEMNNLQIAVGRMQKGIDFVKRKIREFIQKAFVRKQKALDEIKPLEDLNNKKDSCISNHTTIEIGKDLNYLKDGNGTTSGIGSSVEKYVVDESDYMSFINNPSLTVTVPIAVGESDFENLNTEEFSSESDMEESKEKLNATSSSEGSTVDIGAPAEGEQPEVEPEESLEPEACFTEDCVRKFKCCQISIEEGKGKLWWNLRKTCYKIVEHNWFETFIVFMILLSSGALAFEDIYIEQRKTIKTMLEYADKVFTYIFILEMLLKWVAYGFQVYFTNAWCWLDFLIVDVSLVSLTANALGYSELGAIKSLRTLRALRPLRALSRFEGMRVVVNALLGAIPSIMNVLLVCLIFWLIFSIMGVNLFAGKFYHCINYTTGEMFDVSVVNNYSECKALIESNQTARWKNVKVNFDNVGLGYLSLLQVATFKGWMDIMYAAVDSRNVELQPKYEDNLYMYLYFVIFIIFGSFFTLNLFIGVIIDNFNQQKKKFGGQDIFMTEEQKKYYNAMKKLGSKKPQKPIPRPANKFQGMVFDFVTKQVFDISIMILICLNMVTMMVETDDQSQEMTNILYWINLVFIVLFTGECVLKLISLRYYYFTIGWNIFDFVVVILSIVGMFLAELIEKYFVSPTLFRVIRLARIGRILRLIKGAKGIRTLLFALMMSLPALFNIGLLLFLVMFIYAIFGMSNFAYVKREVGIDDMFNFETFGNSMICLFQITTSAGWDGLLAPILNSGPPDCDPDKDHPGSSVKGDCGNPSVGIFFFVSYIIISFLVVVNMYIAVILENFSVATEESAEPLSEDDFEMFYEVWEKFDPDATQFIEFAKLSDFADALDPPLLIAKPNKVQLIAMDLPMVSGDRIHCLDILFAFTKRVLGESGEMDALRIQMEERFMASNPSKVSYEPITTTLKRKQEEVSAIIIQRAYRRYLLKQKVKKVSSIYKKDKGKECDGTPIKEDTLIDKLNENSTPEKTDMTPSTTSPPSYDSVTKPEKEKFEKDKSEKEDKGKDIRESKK
Source text: Wild-type (WT) cDNA stably transfected in Chinese hamster ovary (CHO) cells is used to record INa. Unless otherwise noted, all reagents are purchased from Sigma-Aldrich (St Louis, Mo., U.S.A.).
Whole-cell voltage-clamp recordings are used to measure the biophysical properties of WT. Briefly, the pipette solution consists of (in mM) 110 CsF, 10 NaF, 20 CsCl, 2 EGTA, 10 HEPES, with a pH of 7.35 and osmolarity of 300 mOsmol/kg. The bath (control) solution contains in (mM): 145 NaCl, 4 KCl, 1.8 CaCl2, 1 MgCl2, 10 dextrose, 10 HEPES, with a pH of 7.35 and osmolarity of 310 mOsmol/kg. Cells are allowed to stabilize for 10 min after establishment of the whole-cell configuration before current is measured. Series resistance is compensated 90% to assure that the command potential is reached within microseconds with a voltage error <2 mV. Leak currents are subtracted by using an online P/4 procedure and all currents are low-pass Bessel filtered at 5 kHz and digitized at 50 kHz.
Tonic block of peak current is measured using a step to −10 mV (20 ms) from a holding potential of −120 mV (0.2 Hz). Use-dependent block of peak current is measured during pulse number 300 of a pulse train (−10 mV, 5 ms, 300 pulses, 10 Hz or 25 Hz) from a holding potential of −120 mV. Two sequential pulse train stimulations are averaged to obtain mean current traces for each recording condition, which are then used for offline subtraction and analysis.
For use-dependent studies, cells are stimulated with depolarizing pulse trains (−10 mV, 5 ms, 300 pulses, 10 and 25 Hz) from a holding potential of −120 mV. Currents are then normalized to the peak current recorded in response to the first pulse in each frequency train. For tonic block studies, peak current is evaluated in response to a 20 ms depolarization to −10 mV (0.2 Hz). Data analysis is performed using Clampfit 9.2 (Axon Instruments, Union City, Calif., U.S.A), Excel 2002 (Microsoft, Seattle, Wash., U.S.A.), and OriginPro 7.0 (OriginLab, Northampton, Mass., U.S.A) software. Results are presented as mean±SEM.
A stock solution of 10 mM compound of Formula I is prepared in 0.1 M HCl or DMSO. A fresh dilution of the compound of Formula I in the bath solution is prepared every experimental day and the pH is readjusted to 7.35 as necessary. The final DMSO concentration was kept at 0.1% in all solutions. Direct application of the perfusion solution to the clamped cell is achieved using the Perfusion Pencil system (Automate, Berkeley, Calif.). Direct cell perfusion is driven by gravity at a flow rate of 350 μL/min using a 250 micron tip. This system sequesters the clamped cell within a perfusion stream and enables complete solution exchange within 1 second. The clamped cell is perfused continuously starting immediately after establishing the whole-cell configuration. Control currents are measured during control solution perfusion.
Solutions are perfused for three minutes prior to current recordings to allow equilibrium (tonic) drug block. Tonic block of peak currents is measured from this steady-state condition. Three sequential current traces are averaged to obtain a mean current for each recording. The mean current traces are utilized for offline analysis. Use-dependent block of peak current is measured during pulse number 300 of the pulse train, (−10 mV, 5 ms, 300 pulses, 10 Hz) from a holding potential of −120 mV. Two sequential pulse train stimulations are averaged to obtain mean current traces for each recording condition, which are then used for offline subtraction and analysis. Where appropriate, concentration inhibition curves are fit with the Hill equation: I/Imax=1/[1+10̂(log IC50−I)*k], where IC50 is the concentration that produces half inhibition and k is the Hill slope factor.

[5] = target: wild-type human cardiac sodium channel, hNav1.5 (peak INa) (Homo sapiens, UniProt Q14524); assay: Peak INa screening assay (tonic and use-dependent block); assay type: cell-based
wild-type human cardiac sodium channel, hNav1.5 (peak INa), sequence (Q14524 whole entry): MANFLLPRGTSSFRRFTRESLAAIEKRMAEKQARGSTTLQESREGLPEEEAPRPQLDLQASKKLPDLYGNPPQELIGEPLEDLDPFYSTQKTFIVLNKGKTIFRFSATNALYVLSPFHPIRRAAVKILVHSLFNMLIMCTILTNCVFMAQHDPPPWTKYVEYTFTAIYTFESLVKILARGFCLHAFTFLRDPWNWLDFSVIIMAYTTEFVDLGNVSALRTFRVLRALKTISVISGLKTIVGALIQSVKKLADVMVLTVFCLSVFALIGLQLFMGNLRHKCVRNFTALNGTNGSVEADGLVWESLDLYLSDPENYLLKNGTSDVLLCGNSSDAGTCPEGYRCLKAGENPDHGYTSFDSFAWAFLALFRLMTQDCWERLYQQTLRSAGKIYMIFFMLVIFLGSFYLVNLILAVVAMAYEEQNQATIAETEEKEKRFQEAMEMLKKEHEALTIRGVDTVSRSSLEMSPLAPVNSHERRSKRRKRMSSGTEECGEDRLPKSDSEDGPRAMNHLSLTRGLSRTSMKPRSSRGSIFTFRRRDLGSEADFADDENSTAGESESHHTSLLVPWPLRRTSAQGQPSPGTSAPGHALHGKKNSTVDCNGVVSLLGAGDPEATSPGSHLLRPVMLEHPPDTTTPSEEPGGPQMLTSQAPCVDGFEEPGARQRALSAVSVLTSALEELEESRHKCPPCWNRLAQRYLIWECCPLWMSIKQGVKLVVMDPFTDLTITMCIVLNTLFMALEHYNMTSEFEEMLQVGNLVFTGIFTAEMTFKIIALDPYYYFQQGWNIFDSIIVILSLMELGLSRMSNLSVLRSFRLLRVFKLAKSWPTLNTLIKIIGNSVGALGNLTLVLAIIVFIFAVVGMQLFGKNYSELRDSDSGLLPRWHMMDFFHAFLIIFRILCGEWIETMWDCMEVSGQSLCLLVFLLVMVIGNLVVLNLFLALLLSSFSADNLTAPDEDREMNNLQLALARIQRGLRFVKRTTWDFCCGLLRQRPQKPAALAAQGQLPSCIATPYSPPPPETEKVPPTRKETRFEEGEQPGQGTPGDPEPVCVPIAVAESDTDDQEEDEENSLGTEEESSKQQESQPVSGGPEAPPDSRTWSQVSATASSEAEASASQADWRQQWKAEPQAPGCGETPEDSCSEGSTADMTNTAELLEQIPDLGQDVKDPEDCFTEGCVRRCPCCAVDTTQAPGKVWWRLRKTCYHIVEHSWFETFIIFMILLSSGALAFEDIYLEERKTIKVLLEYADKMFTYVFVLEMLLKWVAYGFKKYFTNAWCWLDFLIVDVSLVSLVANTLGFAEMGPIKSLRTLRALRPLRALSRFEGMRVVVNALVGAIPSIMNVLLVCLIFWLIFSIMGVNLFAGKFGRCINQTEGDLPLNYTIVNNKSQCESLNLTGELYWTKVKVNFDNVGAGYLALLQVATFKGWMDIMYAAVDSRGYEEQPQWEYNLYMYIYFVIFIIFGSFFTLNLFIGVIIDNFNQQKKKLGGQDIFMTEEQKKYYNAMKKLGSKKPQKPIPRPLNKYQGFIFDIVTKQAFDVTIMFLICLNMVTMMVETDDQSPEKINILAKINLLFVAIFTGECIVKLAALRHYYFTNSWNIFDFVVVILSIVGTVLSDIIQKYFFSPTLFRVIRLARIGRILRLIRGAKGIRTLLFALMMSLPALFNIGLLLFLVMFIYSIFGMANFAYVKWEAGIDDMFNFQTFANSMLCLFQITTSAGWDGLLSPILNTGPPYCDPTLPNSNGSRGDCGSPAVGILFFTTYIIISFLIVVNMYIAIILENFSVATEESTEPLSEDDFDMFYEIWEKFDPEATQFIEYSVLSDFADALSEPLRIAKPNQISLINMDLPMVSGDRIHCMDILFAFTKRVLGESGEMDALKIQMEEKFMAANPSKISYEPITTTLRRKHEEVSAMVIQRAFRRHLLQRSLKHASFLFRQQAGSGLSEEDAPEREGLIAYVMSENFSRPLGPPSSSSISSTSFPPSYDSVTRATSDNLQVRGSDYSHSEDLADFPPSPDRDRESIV
Outline: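 Whole-cell automated patch clamp, HEK293 stably expressing hNav1.5 alpha without beta subunits, 23-25° C, holding −100 mV; bath Na⁺ reduced to 20 mM, CsF-based intracellular pH 7.4. Test compound 1 μM; tonic block at 0.1 Hz, use-dependent block at 3 Hz, % peak block after rundown correction.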

[6] = % inhibition at 1 μM, read-out: NAv1.5*-LATE-
[7] = percent block of late INa, compound at 1 μM, 10 μM Tefluthrin, HEK293 hNav1.5, read-out: Late INa 1 μM
[8] = % inhibition at 1 μM, tonic block, read-out: NAv1.5*-PEAK-TB-
[9] = % inhibition at 1 μM, use-dependent block 3 Hz, read-out: NAv1.5*-PEAK-UDB-3 HZ-
[10] = tonic block of peak INa, 0.1 Hz, 1 μM, read-out: Peak TB 1 μM
[11] = use-dependent block of peak INa, 3 Hz, 1 μM, read-out: Peak UDB 1 μM

| MS Rat THalf [2] [min] | MS Dog THalf [3] [min] | MS Human THalf [4] [min] | inhibition at 1 µM (hNav1.1) [%] | inhibition at 1 µM (Human Nav1.2) [%] | SMILES | inhibition at 1 µM [1, 6] [%] | inhibition at 1 µM [1, 7] [%] | HERG* (hERG potassium channel) [%] | inhibition at 1 µM [5, 8] [%] | inhibition at 1 µM [5, 9] [%] | inhibition at 1 µM [5, 10] [%] | inhibition at 1 µM [5, 11] [%] |
| --- | --- | --- | --- | --- | --- | --- | --- | --- | --- | --- | --- | --- |
| 181 | > 395 | > 395 |  |  | O=c1c2cc(-c3ccc(OC(F)(F)F)cc3)ccc2nnn1Cc1nnc(C2CC2)s1 [II-66, 3-((5-cyclopropyl-1,3,4-thiadiazol-2-yl)methyl)-6-(4-(trifluoromethoxy)phenyl)benzo[d][1,2,3]triazin-4(3H)-one] | 39 | 39 | 23 |  |  |  |  |
| 222 | 68 | 333 | 27.6 | 5 | Cc1noc(Cn2ncc3ccc(-c4ccc(OC(F)(F)F)cc4)cc3c2=O)n1 [III-2, 2-((3-methyl-1,2,4-oxadiazol-5-yl)methyl)-7-(4-(trifluoromethoxy)phenyl)phthalazin-1(2H)-one] | 40 | 40 |  |  |  |  |  |
| 132 | 245 | 159 |  |  | O=C(c1ncc[nH]1)N1CCc2ccc(-c3ccc(C(F)(F)F)cc3)cc2C1 [IX-57, (1H-imidazol-2-yl)(7-(4-(trifluoromethyl)phenyl)-3,4-dihydroisoquinolin-2(1H)-yl)methanone] | 44 | 44 |  | 10 | 6 | 10 | 6 |
| 14 | 74 | 35 |  |  | C[C@@H]1CC[C@@H](C)N1C(=O)N1CCc2ccc(-c3ccc(C(F)(F)F)cc3)cc2C1 [IX-105] | 43 | 43 |  | 6 | 3 | 6 | 3 |

The remaining lines, values behind:

| SMILES | MS Rat THalf [2] [min] | MS Dog THalf [3] [min] | MS Human THalf [4] [min] | inhibition at 1 µM (hNav1.1) [%] | inhibition at 1 µM (Human Nav1.2) [%] | inhibition at 1 µM [1, 6] [%] | inhibition at 1 µM [1, 7] [%] | HERG* (hERG potassium channel) [%] | inhibition at 1 µM [5, 8] [%] | inhibition at 1 µM [5, 9] [%] | inhibition at 1 µM [5, 10] [%] | inhibition at 1 µM [5, 11] [%] |
| --- | --- | --- | --- | --- | --- | --- | --- | --- | --- | --- | --- | --- |
| O=c1c2cc(-c3ccc(OC(F)(F)F)cc3)ccc2nnn1CCOc1nccc(-c2noc(C3CC3)n2)n1 [II-60, 3-(2-(4-(5-cyclopropyl-1,2,4-oxadiazol-3-yl)pyrimidin-2-yloxy)ethyl)-6-(4-(trifluoromethoxy)phenyl)benzo[d][1,2,3]triazin-4(3H)-one] | > 395 | 356 | 362 |  |  | 32 | 32 | 31 |  |  |  |  |
| O=c1c2cc(-c3ccc(OC(F)(F)F)cc3)ccc2cnn1Cc1ncc(Cl)cn1 [III-35, 2-((5-chloropyrimidin-2-yl)methyl)-7-(4-(trifluoromethoxy)phenyl)phthalazin-1 (2H)-one] | 296 | 85 | > 395 |  |  | 38 | 38 | 17 |  |  |  |  |
| O=c1c2cc(C#Cc3ccc(OC(F)(F)F)cc3)ccc2nnn1CCOc1ncccn1 [VII-1, 3-(2-(pyrimidin-2-yloxy)ethyl)-6-((4-(trifluoromethoxy)phenyl)ethynyl)benzo[d][1,2,3]triazin-4(3H)-one] | 44 | 114 | > 395 |  |  |  | 55 |  |  |  | 7 | 1 |
